# Values of other authors in PMC4158421, “Screening-based discovery of Aspergillus fumigatus plant-type chitinase inhibitors” (Febs Letters, 2014).
# Tested on: A. fumigatus biofilm
# Set-up: method as in PMID 23314962
compound,measurement,value
CC(=O)Nc1nnc(S(N)(=O)=O)s1 [acetazolamide],effect on A. fumigatus biofilm biomass,reduce A. fumigatus biofilm biomass
